Among the test systems are COLO 205 colon; SF-268 CNS; U251 CNS; CAKI-1 renal; 786-0 renal; LOX IMVI melanoma; EKVX NSCLC; SF-295 CNS; RPMI-8226 leukemia.
Holding throughout (assay): NCI tumour cell line growth inhibition, 48 h

This is an account of results in PubChem BioAssay (NCI).

The structures appear in SMILES notation. Values joined by “and” are separate entries in the source; they are usually repeats but may differ in a detail not shown here. Equal values may be shown once.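 Exposure lasted 48 hours, with cells grown in 96-well plates and compounds tested at five concentrations. GI50 marks 50% less growth. TGI marks complete inhibition of growth.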

Consider `Cc1cc(Cl)ccc1N=C1NC(=O)C(CC(=O)Nc2cccc(Cl)c2)S1` (stereo not drawn), for which the TGI with COLO 205 colon, in the experiment on SF-268 CNS, with U251 CNS, in the experiment with CAKI-1 renal, in the experiment with 786-0 renal and with LOX IMVI melanoma was > 100 µM throughout. The TGI in the experiment with EKVX NSCLC and in the experiment with SF-295 CNS was > 100 µM throughout.

Turning to `N=C(N)c1ccc2oc3ccc(C(=N)N)cc3c(=O)c2c1`, the TGI in the experiment with RPMI-8226 leukemia, in the experiment on COLO 205 colon, in the experiment on SF-268 CNS, in the experiment on U251 CNS, in the experiment with CAKI-1 renal and with 786-0 renal was > 100 µM throughout. In addition, the TGI in the experiment with SF-295 CNS is > 100 µM.

As to `COc1cc2c(c(OC)c1OC)-c1cc(I)c(O)cc1[C@@H](NC(C)=O)CC2`, the GI50 in the experiment with RPMI-8226 leukemia was 0.035 µM; with COLO 205 colon it was 0.0385 µM; with SF-268 CNS, 0.0666 µM; in the experiment with U251 CNS, 0.0483 µM; in the experiment with CAKI-1 renal, 3.58 µM; with 786-0 renal, 0.0614 µM. Further, the GI50 is 0.075 µM in the experiment with LOX IMVI melanoma, 0.419 µM in the experiment on EKVX NSCLC and 0.037 µM with SF-295 CNS. The TGI in the experiment on RPMI-8226 leukemia is 2.53 µM; in the experiment with COLO 205 colon, 0.155 µM; in the experiment on SF-268 CNS, 41.1 µM; in the experiment with U251 CNS, > 100 µM; with CAKI-1 renal, > 100 µM; in the experiment on 786-0 renal, > 100 µM. The TGI with LOX IMVI melanoma, with EKVX NSCLC and in the experiment on SF-295 CNS was > 100 µM throughout.

With `O=P(CN1CCOCC1)(c1ccccc1)c1ccccc1`, the TGI in the experiment with RPMI-8226 leukemia, with COLO 205 colon, with SF-268 CNS, in the experiment with U251 CNS, with CAKI-1 renal and in the experiment on 786-0 renal was > 100 µM throughout. The TGI in the experiment with LOX IMVI melanoma, in the experiment with EKVX NSCLC and in the experiment on SF-295 CNS was > 100 µM in each case.

In the case of `CCc1ccc2c(c1)C(=O)c1c-2n(CCCN)c(=O)c2cc(OC)c(OC)cc12`, the GI50 with RPMI-8226 leukemia is 1.41 µM; with U251 CNS, 1.69 µM; with 786-0 renal it was 1.68 µM; with LOX IMVI melanoma, 1.36 µM; in the experiment on EKVX NSCLC, 1.92 µM; in the experiment on SF-295 CNS it was 1.59 µM. Besides, the TGI with RPMI-8226 leukemia turned out to be 3.02 µM; in the experiment with U251 CNS, 3.11 µM; in the experiment with 786-0 renal, 3.11 µM; in the experiment with LOX IMVI melanoma it was 2.73 µM; in the experiment on EKVX NSCLC it was 3.44 µM; in the experiment on SF-295 CNS, 3.08 µM.

For the compound `COc1ccc(/C=C/C(=O)c2c(-c3ccccc3)nn(C)c(=O)c2N2CC2C)cc1` (stereo not drawn), the TGI with COLO 205 colon was 89.2 µM; in the experiment with SF-268 CNS, > 100 µM; in the experiment on U251 CNS, 85.6 µM; in the experiment on CAKI-1 renal it was > 100 µM; in the experiment on 786-0 renal, > 100 µM; in the experiment on LOX IMVI melanoma it was 34 µM. Moreover, the TGI in the experiment with EKVX NSCLC is 94.3 µM; in the experiment on SF-295 CNS, > 100 µM.

Take `CN1C2C=CC(=O)C1C1C(=O)N(c3ccccc3)C(=O)C12` (stereo not drawn): the GI50 in the experiment on COLO 205 colon is 7.81 µM; in the experiment with SF-268 CNS it was 3.99 µM; with U251 CNS it was 7.16 µM; in the experiment with CAKI-1 renal, 1.66 µM; with 786-0 renal it was 3.57 µM; in the experiment on LOX IMVI melanoma, 3.74 µM. Also, the values for the GI50 with EKVX NSCLC and in the experiment with SF-295 CNS were 14.4 µM and 3.06 µM, respectively. For the same compound, the TGI with COLO 205 colon turned out to be 22 µM; with SF-268 CNS, 17.3 µM; in the experiment on U251 CNS, 20.8 µM; with CAKI-1 renal, 4.27 µM; in the experiment with 786-0 renal, 15.4 µM; in the experiment on LOX IMVI melanoma, 13.3 µM. Besides, the results for the TGI in the experiment with EKVX NSCLC and in the experiment on SF-295 CNS were 32.7 µM and 36.7 µM, respectively.

With `Clc1ccc(C=Nc2ccc(-c3nc4ccccc4[nH]3)cc2)cc1`, the GI50 in the experiment with RPMI-8226 leukemia is > 100 µM; in the experiment on COLO 205 colon, > 100 µM; in the experiment on SF-268 CNS, 58.4 µM; in the experiment on U251 CNS, 65.1 µM; with CAKI-1 renal, > 100 µM; in the experiment on 786-0 renal, > 100 µM. For the same compound, the GI50 with LOX IMVI melanoma, in the experiment on EKVX NSCLC and with SF-295 CNS was > 100 µM in each case. Moreover, the TGI in the experiment on RPMI-8226 leukemia, in the experiment with COLO 205 colon, in the experiment on SF-268 CNS, in the experiment on U251 CNS, in the experiment on CAKI-1 renal and in the experiment with 786-0 renal was > 100 µM in each case. The TGI in the experiment on LOX IMVI melanoma, with EKVX NSCLC and in the experiment with SF-295 CNS was > 100 µM throughout.

On to `CCN(CC)CCOC(COc1cc(C)cc(C)c1)COc1cc(C)cc(C)c1`, for which the GI50 was 1.65 µM with COLO 205 colon; 4.26 µM in the experiment with SF-268 CNS; 3.12 µM with U251 CNS; 3.7 µM in the experiment on CAKI-1 renal; 3.2 µM in the experiment on 786-0 renal; 1.31 µM in the experiment on LOX IMVI melanoma. The GI50 with EKVX NSCLC is 2.91 µM. For the same compound, the TGI in the experiment with COLO 205 colon stood at 3.52 µM; in the experiment on SF-268 CNS, 17.6 µM; in the experiment with U251 CNS, 11.5 µM; in the experiment with CAKI-1 renal, 16 µM; in the experiment on 786-0 renal it was 14.5 µM; in the experiment on LOX IMVI melanoma it was 2.73 µM. In addition, the TGI in the experiment with EKVX NSCLC came to 11.8 µM.

As to `CC1[C@@]2(CCC(C)(C)O2)O[C@@H]2C=C3C4CCC5Cc6nc7c(nc6C[C@@]5(C)C4C[C@H](O)[C@@]3(C)[C@]12O)CC1CCC2C3=C[C@H]4O[C@@]5(O[C@@](C)(CO)C[C@@H]5O)C(C)[C@@]4(O)[C@]3(C)[C@@H](O)CC2[C@]1(C)C7` (stereo partly drawn), the TGI is 0.032 µM in the experiment on RPMI-8226 leukemia; 0.472 µM and 0.0525 µM in the experiment with COLO 205 colon; 0.904 µM and 0.125 µM in the experiment with SF-268 CNS; 0.66 µM with CAKI-1 renal; 0.6 µM with 786-0 renal; 0.695 µM and 0.366 µM in the experiment on LOX IMVI melanoma. Also, in the experiment with EKVX NSCLC, the TGI was 0.875 µM and 0.462 µM. Besides, the GI50 was 0.0141 µM in the experiment with COLO 205 colon; 0.00464 µM in the experiment with SF-268 CNS; 0.00043 µM with U251 CNS; 0.0195 µM with CAKI-1 renal; 0.0106 µM with LOX IMVI melanoma; 0.00521 µM in the experiment with EKVX NSCLC. In addition, the GI50 with SF-295 CNS was < 0.000365 µM.

On to `O=C(/C=C/c1ccccc1)c1ccc(Cl)cc1Cl`, for which the TGI is 28.4 µM in the experiment with RPMI-8226 leukemia; 37.2 µM with COLO 205 colon; 59.8 µM in the experiment with SF-268 CNS; 34.6 µM in the experiment with U251 CNS; 64 µM in the experiment on CAKI-1 renal; 33.2 µM in the experiment on 786-0 renal. The TGI with EKVX NSCLC was found to be 62.3 µM; with SF-295 CNS, 41.2 µM.

`Cc1cc(N(CCC#N)CCC#N)ccc1/C=C(\NC(=O)/C=C/c1ccccc1)C(=O)Nc1ccccc1Cl`: the TGI in the experiment on RPMI-8226 leukemia, with COLO 205 colon, in the experiment on SF-268 CNS, with U251 CNS, in the experiment with CAKI-1 renal and in the experiment on 786-0 renal was > 100 µM each time. Further, the TGI in the experiment with LOX IMVI melanoma, in the experiment on EKVX NSCLC and with SF-295 CNS was > 100 µM throughout.

Take `CC(C)(O)C1COC2=C1C(=O)c1ccccc1C2=O` (stereo not drawn): the TGI is > 100 µM in the experiment with RPMI-8226 leukemia; > 100 µM in the experiment with COLO 205 colon; 77.1 µM in the experiment on SF-268 CNS; > 100 µM with U251 CNS; > 100 µM with CAKI-1 renal; > 100 µM with 786-0 renal. In addition, the TGI was 41.9 µM in the experiment with LOX IMVI melanoma, > 100 µM in the experiment with EKVX NSCLC and > 100 µM in the experiment with SF-295 CNS.

Regarding `O=C(N/C(=C\c1ccc([N+](=O)[O-])cc1)c1nc2ccccc2s1)c1ccccc1`, the TGI in the experiment with RPMI-8226 leukemia was 44.1 µM; in the experiment on COLO 205 colon it was > 100 µM; in the experiment on SF-268 CNS, 56.2 µM; in the experiment on U251 CNS it was > 100 µM; in the experiment with CAKI-1 renal, 95.8 µM; in the experiment on 786-0 renal, 34.1 µM. This compound also came in with a TGI in the experiment on LOX IMVI melanoma of 46.5 µM.

Consider `Cc1ccc(NCCNCC(C)(C)O)c2c(=O)c3ccc(Cl)cc3sc12`, for which the GI50 in the experiment on COLO 205 colon is 1.34 µM; in the experiment on SF-268 CNS it was 1.52 µM; with U251 CNS, 1.67 µM; in the experiment on 786-0 renal, 1.57 µM; with EKVX NSCLC, 1.38 µM; in the experiment on SF-295 CNS, 1.66 µM. For the same compound, the TGI in the experiment with COLO 205 colon is 2.92 µM; in the experiment on SF-268 CNS, 3.22 µM; in the experiment with U251 CNS it was 3.06 µM; in the experiment with 786-0 renal, 3.04 µM; with EKVX NSCLC it was 2.87 µM; in the experiment with SF-295 CNS, 3.11 µM.

Consider `CC(=O)CCC1(c2ccccc2)OC(=O)C(C#N)=C1c1ccccc1` (stereo not drawn), for which the TGI in the experiment on RPMI-8226 leukemia, with COLO 205 colon, in the experiment with SF-268 CNS, in the experiment on U251 CNS, in the experiment with 786-0 renal and with LOX IMVI melanoma was > 100 µM each time. The TGI with EKVX NSCLC and in the experiment on SF-295 CNS was > 100 µM in each case.

For the compound `C/C=C/C=C/c1cc2cc3c(c(O)c2c(=O)[nH]1)C1(CC3)C(O)=c2c(=O)c3c(=O)cc(OC)c(=O)c=3c(=O)c2=C1O` (stereo not drawn), the TGI with RPMI-8226 leukemia was 0.678 µM and 2.2 µM; in the experiment on COLO 205 colon it was 1.23 µM and 6.92 µM; in the experiment on SF-268 CNS, 17.6 µM and 40.3 µM; in the experiment on U251 CNS it was 0.851 µM and 5.59 µM; in the experiment with 786-0 renal, 4.37 µM and 8.39 µM; in the experiment on LOX IMVI melanoma, 9.5 µM. In addition, the TGI was 3 µM and 12.2 µM with EKVX NSCLC; 2.91 µM and 8.02 µM in the experiment with SF-295 CNS. Further, the GI50 in the experiment on 786-0 renal was 0.41 µM and 1.91 µM; in the experiment on LOX IMVI melanoma, 1.27 µM; in the experiment with EKVX NSCLC, 0.188 µM and 1.12 µM.
